Data taken from ChEMBL document CHEMBL1125222, “Activity of N6-substituted 2-chloroadenosines at A1 and A2 adenosine receptors” (J Med Chem, 1991).
pEC50, pKi: −log10 of the molar value.

What was measured:
[1] = Effective concentration against A2AR mediated P12 adenylatencyclase activity; assay type: functional, Rattus norvegicus
[2] = Concentration required to increase Adenosine A2A receptor mediated P12 Adenylate cyclase activity; assay type: functional, Rattus norvegicus
[3] = molecular target: T1, Adenosine receptor A1 (Rattus norvegicus, UniProt P25099); experiment: Inhibition of [3H]- (R)-P1A binding to adenosine A1 receptor
T1 sequence (P25099 whole entry): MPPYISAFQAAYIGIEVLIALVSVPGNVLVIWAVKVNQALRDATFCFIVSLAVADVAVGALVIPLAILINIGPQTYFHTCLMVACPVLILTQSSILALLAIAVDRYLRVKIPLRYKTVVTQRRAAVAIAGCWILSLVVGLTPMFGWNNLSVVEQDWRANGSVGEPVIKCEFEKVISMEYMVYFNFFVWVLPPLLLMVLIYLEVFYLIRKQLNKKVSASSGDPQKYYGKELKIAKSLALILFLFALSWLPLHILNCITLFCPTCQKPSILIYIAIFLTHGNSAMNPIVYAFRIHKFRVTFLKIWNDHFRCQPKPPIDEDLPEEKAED

[4] = molecular target: Adenosine A2 receptor (Rattus norvegicus, UniProt P29276+P30543); experiment: Inhibition of [3H]- NECA binding to adenosine receptor A2; assay type: protein assay
[5] = molecular target: T1, Adenosine receptor A1

pEC50 [1] | pEC50 [2] | pKi [3] | Ki [4] | pKi [5] | Structure (SMILES)
6.14 |  |  |  |  | OC[C@H]1O[C@@H](n2cnc3c(NC4CCCC4)nc(Cl)nc32)[C@H](O)[C@@H]1O
 | 6.34 | 8.17 |  |  | Nc1nc(Cl)nc2c1ncn2[C@@H]1O[C@H](CO)[C@@H](O)[C@H]1O
5.52 |  |  | 3000 nM | 7.70 | C[C@@H](Cc1ccccc1)Nc1nc(Cl)nc2c1ncn2[C@@H]1O[C@H](CO)[C@@H](O)[C@H]1O
6.49 |  |  | 220 nM | 8.85 | C[C@H](Cc1ccccc1)Nc1nc(Cl)nc2c1ncn2[C@@H]1O[C@H](CO)[C@@H](O)[C@H]1O
5.80 |  |  | 1700 nM | 8.12 | OC[C@H]1OC(n2cnc3c(Nc4ccccc4)nc(Cl)nc32)[C@H](O)[C@@H]1O (stereo not given in full)
6.01 |  |  |  |  | C[C@H](Cc1ccccc1)Nc1ncnc2c1ncn2[C@@H]1O[C@H](CO)[C@@H](O)[C@H]1O [(R)-PIA]
 | 5.38 |  |  |  | C[C@@H](Cc1ccccc1)Nc1ncnc2c1ncn2[C@@H]1O[C@H](CO)[C@@H](O)[C@H]1O [(S)-PIA]
 | 6.82 |  |  |  | Nc1ncnc2c1ncn2[C@@H]1O[C@H](CO)[C@@H](O)[C@H]1O [ADENOSINE]
5.49 |  |  | 510 nM |  | OC[C@H]1O[C@@H](n2cnc3c(NC4CCCC4)ncnc32)[C@H](O)[C@@H]1O [N6-CYCLOPENTYLADENOSINE]
5.51 |  |  | 1200 nM | 7.80 | OC[C@H]1O[C@@H](n2cnc3c(Nc4ccccc4)ncnc32)[C@H](O)[C@@H]1O [N6-PHENYLADENOSINE]
